ChEMBL document CHEMBL4342507, “Targeting YAP Degradation by a Novel 1,2,4-Oxadiazole Derivative via Restoration of the Function of the Hippo Pathway” (ACS Med Chem Lett, 2020)
pIC50: −log10 of the molar value. The source made the active and inactive calls. The calls are words filed in the database; no cut-off is given here.

Columns and labels:
[1] = test system: PC-9; assay: Cytotoxicity against human PC9 cells assessed as reduction in cell viability measured after 72 hrs by MTT assay; type: functional, cell-based
[2] = test system: PC-3; assay: Cytostatic activity against human PC3 cells assessed as cell viability at concentration of greater than IC50 measured up to 72 hrs by MTT assay; type: functional, cell-based
[3] = target: T1, Serine/threonine-protein kinase LATS1 (Homo sapiens) (UniProt O95835); assay: Activation of LATS1 in human PC3 cells assessed as increase in phosphorylation at Ser909 residue measured after 24 hrs by Western blot analysis; type: cell-based
T1 sequence (whole entry): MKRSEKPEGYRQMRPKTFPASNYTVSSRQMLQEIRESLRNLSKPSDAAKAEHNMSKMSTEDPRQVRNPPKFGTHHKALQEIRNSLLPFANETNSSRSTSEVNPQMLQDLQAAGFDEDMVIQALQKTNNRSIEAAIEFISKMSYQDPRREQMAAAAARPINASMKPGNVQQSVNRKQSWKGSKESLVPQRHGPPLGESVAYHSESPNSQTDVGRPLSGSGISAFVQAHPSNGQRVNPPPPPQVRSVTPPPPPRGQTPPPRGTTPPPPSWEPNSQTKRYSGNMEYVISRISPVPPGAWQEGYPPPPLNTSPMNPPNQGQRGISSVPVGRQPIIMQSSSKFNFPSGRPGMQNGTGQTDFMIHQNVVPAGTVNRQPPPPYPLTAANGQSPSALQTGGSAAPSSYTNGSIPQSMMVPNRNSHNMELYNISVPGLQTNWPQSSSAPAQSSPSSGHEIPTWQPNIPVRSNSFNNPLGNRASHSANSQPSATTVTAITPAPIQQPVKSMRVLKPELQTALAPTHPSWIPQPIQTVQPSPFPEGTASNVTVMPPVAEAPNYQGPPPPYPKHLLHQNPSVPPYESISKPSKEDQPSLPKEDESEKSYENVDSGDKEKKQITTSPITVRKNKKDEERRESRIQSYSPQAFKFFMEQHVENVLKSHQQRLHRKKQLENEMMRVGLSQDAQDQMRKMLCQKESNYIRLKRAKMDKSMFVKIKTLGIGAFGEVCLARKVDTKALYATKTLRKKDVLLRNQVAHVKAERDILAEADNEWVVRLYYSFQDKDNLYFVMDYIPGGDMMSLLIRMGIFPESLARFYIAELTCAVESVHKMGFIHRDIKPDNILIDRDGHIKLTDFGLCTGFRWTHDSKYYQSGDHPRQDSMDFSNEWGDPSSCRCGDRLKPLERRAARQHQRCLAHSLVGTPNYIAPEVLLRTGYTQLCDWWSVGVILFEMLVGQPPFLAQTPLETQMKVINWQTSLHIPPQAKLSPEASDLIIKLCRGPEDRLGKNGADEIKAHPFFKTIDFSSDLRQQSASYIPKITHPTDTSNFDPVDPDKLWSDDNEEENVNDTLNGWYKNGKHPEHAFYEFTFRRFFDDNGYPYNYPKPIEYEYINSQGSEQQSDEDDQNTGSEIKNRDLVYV

[4] = test system: PC-3; assay: Cytotoxicity against human PC3 cells assessed as reduction in cell viability at 0.2 to 1.2 uM by MTT assay; type: functional, cell-based; conditions: TDE = time-dependent effect
[5] = test system: SUM-159-PT; assay: Cytotoxicity against human SUM159 cells assessed as reduction in cell viability at 0.2 to 1.2 uM by MTT assay; type: functional, cell-based; conditions: TDE = time-dependent effect
[6] = test system: SUM-159-PT; assay: Cytotoxicity against human SUM159 cells assessed as reduction in cell viability measured after 72 hrs by MTT assay; type: functional, cell-based
[7] = test system: MDA-MB-231; assay: Cytostatic activity against human MDA-MB-231 cells assessed as cell viability at concentration of greater than IC50 measured up to 72 hrs by MTT assay; type: functional, cell-based
[8] = target: T1, Serine/threonine-protein kinase LATS1 (Homo sapiens); assay: Activation of LATS1 in human MDA-MB-231 cells assessed as increase in phosphorylation at Thr1079 residue measured after 24 hrs by Western blot analysis; type: cell-based
[9] = Acute toxicity in athymic Nude-Foxn1nu BALB/c mouse xenografted with human MDA-MB-231 cells assessed as effect on body weight at 200 mg/kg, po administered once daily via gavage for 40 days and measured twice a week during treatment period; type: organism-based; conditions: in vivo, 960 h
[10] = organism: Homo sapiens; assay: Activation of MOB in human PC3 cells assessed as phosphorylation at Thr35 residue at 0.25 to 1.25 uM measured after 24 hrs by Western blot analysis; type: cell-based
[11] = target: T1, Serine/threonine-protein kinase LATS1 (Homo sapiens); assay: Activation of LATS1 in human MDA-MB-231 cells assessed as induction of YAP degradation by measuring suppression of YAP protein expression at 0.5 uM pretreated with compound for 24 hrs followed by incubation with protein synthesis inhibitor, CHX up to 48 hrs by Western blot analysis; type: cell-based
[12] = test system: PC-9; assay: Cytostatic activity against human PC9 cells assessed as cell viability at concentration of greater than IC50 measured up to 72 hrs by MTT assay; type: functional, cell-based
[13] = target: Serine/threonine-protein kinase 3/4 (Homo sapiens) (UniProt Q13043+Q13188); assay: Activation of MST1/2 in human MDA-MB-231 cells assessed as effect on phosphorylation at T183/T180 residues at 0.25 to 1.5 uM measured after 24 hrs by Western blot analysis; type: cell-based
[14] = test system: PC-9; assay: Downregulation of TAZ protein expression in human PC9 cells at 0.25 to 1.5 uM measured after 12 to 24 hrs by immunoblotting analysis; type: functional, cell-based
[15] = test system: MDA-MB-231; assay: Cytotoxicity against human MDA-MB-231 cells assessed as reduction in cell viability at 0.2 to 1.2 uM by MTT assay; type: functional, cell-based; conditions: TDE = time-dependent effect
[16] = target: T1, Serine/threonine-protein kinase LATS1 (Homo sapiens); assay: Activation of LATS1 in triple-negative human SUM159 cells assessed as induction of YAP degradation by measuring suppression of YAP protein expression at 0.25 to 1 uM measured after 12 hrs in presence of 10 uM proteosomal inhibitor, MG132 by Western blot analysis
[17] = Acute toxicity in athymic Nude-Foxn1nu BALB/c mouse xenografted with human MDA-MB-231 cells assessed as effect on serum ALT level at 200 mg/kg, po administered once daily via gavage for 14 days; type: organism-based; conditions: in vivo, 336 h
[18] = target: T1, Serine/threonine-protein kinase LATS1 (Homo sapiens); assay: Activation of LATS1 in human PC9 cells assessed as induction of YAP degradation by measuring suppression of YAP protein expression at 0.25 to 1.5 uM measured after 12 to 24 hrs by immunoblotting analysis; type: cell-based
[19] = test system: MCF7; assay: Cytostatic activity against human MCF7 cells assessed as cell viability at concentration of greater than IC50 measured up to 72 hrs by MTT assay; type: functional, cell-based
[20] = test system: MDA-MB-231; assay: Cytotoxicity against human MDA-MB-231 cells assessed as reduction in cell viability measured after 72 hrs by MTT assay; type: functional, cell-based
[21] = test system: PC-3; assay: Cytotoxicity against human PC3 cells assessed as reduction in cell viability measured after 72 hrs by MTT assay; type: functional, cell-based
[22] = test system: SUM-159-PT; assay: Effect on MST2 expression in human SUM159 cells at 0.25 to 1.5 uM measured after 12 hrs by Western blot analysis; type: functional, cell-based

Sequence of Serine/threonine-protein kinase 3/4 (Homo sapiens) (Q13043 whole entry, looked up): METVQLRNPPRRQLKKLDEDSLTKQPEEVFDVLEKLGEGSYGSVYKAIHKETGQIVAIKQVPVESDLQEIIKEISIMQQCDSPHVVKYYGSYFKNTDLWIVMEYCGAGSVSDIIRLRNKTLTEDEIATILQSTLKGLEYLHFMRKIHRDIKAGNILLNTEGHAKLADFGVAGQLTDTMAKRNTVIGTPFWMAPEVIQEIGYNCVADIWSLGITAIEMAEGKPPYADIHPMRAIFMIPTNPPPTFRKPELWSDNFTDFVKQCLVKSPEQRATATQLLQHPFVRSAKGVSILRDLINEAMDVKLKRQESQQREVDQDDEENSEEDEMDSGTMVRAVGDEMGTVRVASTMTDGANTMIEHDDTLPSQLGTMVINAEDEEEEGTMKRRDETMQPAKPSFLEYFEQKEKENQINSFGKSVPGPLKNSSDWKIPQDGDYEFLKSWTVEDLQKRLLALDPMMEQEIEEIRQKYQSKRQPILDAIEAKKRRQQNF
Sequence of Serine/threonine-protein kinase 3/4 (Homo sapiens) (Q13188 whole entry, looked up): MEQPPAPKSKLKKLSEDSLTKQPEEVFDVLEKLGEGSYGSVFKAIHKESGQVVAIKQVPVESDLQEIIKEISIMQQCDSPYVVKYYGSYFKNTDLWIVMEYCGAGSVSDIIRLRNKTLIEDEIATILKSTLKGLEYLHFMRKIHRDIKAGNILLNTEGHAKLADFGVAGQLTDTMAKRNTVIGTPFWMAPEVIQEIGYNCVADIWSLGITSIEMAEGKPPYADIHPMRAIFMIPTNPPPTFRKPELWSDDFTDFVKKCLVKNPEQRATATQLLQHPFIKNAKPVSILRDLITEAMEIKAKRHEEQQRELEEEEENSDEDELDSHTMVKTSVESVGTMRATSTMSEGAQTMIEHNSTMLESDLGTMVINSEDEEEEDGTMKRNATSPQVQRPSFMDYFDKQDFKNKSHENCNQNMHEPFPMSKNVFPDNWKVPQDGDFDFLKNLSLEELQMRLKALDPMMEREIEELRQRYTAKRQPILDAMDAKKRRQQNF

For CC(=O)Nc1ccc(NC(=O)Nc2cccc(-c3nc(-c4ccc(NC(=O)c5cccnc5)cc4Cl)no3)c2)cc1C(F)(F)F, the Activity [1] was “Dose-dependent effect”, the pIC50 ([1]; PC-9, 72 h) was 6.10 to 6.40 and the Activity [2] was “Active”. For the same compound, the Activity [3] was “Dose-dependent effect”, the Activity [4] was “Tde” and the Activity [5] was “Tde”. The Activity [6] was “Dose-dependent effect”, the pIC50 [6] was 6.10 to 6.40 and the Activity [7] was “Active”. For the same compound, the Activity [8] was “Dose-dependent effect”, the Activity [9] was “Non-Toxic” and the Activity [10] was “inactive”. For the same compound, the Activity [11] was “Active”, the Activity [12] was “Active” and the Activity [13] was “inactive”. The inhibition [14] was “Active”, the Activity [15] was “Tde” and the Activity [16] was “inactive”. The Activity [17] was “Non-Toxic”, the Activity [18] was “Active” and the Activity [19] was “Active”. The Activity [20] was “Dose-dependent effect”, the pIC50 ([20]; MDA-MB-231, 72 h) was 6.10 to 6.40 and the Activity [21] was “Dose-dependent effect”. For the same compound, the pIC50 ([21]; PC-3, 72 h) was 6.10 to 6.40 and the Activity [22] was “inactive”.
